Structures are written as SMILES. A value given as a limit tells only on which side of the number the result lay.

Data on 64 molecules can be found in a melting point compilation (Tetko et al.; mined from patent text by program, amines drawn as free bases though some values may be those of a salt).

In general, melting point refers to the temperature, or range, at which the solid turns liquid. As to `CC(C)c1nc(COCc2ccccc2)n(Cc2ccccc2)c1Sc1cccc(Cl)c1`, the melting point fell in the range of 120 to 122 °C.

As to `CC(C)(C)[Si](C)(C)Oc1ccc2c(c1)Oc1ccccc1C2=C1C2CC3CC(C2)CC1C3`, the melting point worked out at 137 °C. Regarding `CC(C)COc1ccc(-c2nc3cccc(C(=O)O)c3s2)cc1C#N`, the melting point is 268 to 270 °C. For `CC#CCOc1ccc(S(=O)(=O)NC)cc1`, the melting point was in the range of 78 to 80 °C. In the case of `CC(C)(O)Cc1nc2cnc3ccccc3c2s1`, the melting point lay within 155 to 157 °C.

`CNC(=O)c1c(-c2ccccc2)noc1CC(O)c1ccccc1` (centres undefined) had a melting point of 183 to 184 °C. In the case of `COc1ccc(-c2cc(C3CCN(C(=O)c4ccccc4)CC3)nc(N)n2)cc1`, the melting point lay in the range of 165 to 166 °C. Molecule `CS(=O)(=O)c1ccc2c3c(cccc13)C(=O)N2` displayed a melting point of 242 to 243 °C. Molecule `COC12C=CC(CC1)C1=C2C(=O)c2c(O)ccc(O)c2C1=O` (centres undefined) showed a melting point of 239 to 241 °C. For the molecule `Cc1cc2ccccn2c1C(=O)c1ccc([N+](=O)[O-])cc1`, the melting point is 149 °C.

On to `CNc1sc(-c2cccnc2)nc1C(F)(F)F`, for which the melting point was 152 to 157 °C. Turning to `Nc1nnc(C(=O)OCc2ccccc2)s1`, the melting point was in the range of 198 to 200 °C. In the case of `Cc1nc(C(=O)NC23CC4CC(CC(O)(C4)C2)C3)c(C)n1-c1ccccc1`, the melting point is 215 to 220 °C. Regarding `OCc1ccc(-c2ccc3nnn(Cc4ccc5ncccc5c4)c3n2)cc1F`, the melting point was 202 to 204 °C. Consider `CC(C)Nc1c([N+](=O)[O-])cnn1-c1ncc(Cl)cc1Cl`, for which the melting point amounted to 123 °C. Turning to `COc1cc(C(=O)Cc2nnnn2C)c(N)cc1Cl`, the melting point is 178 to 181 °C.

For the molecule `C#CCOc1cc(-n2nc(CCC=C)[nH]c2=O)c(Cl)cc1Cl`, the melting point was in the range of 150 to 151 °C. Then `COc1cc(C(=O)NS(=O)(=O)c2ccccc2)ccc1CN1CCOc2ccc(NC(=O)OC3CCCC3)cc21`, with 186 to 187 °C; and `Cc1ccc(C)n1CCNC(=S)Nc1ccc(C(=O)O)cc1`, with 174 to 175 °C; and `CC(C)c1cn2ccccc2c1Sc1ccc(O)cc1`, with 100 °C. Then `CC(=O)N1CCc2cc([N+](=O)[O-])cc(C#N)c21`, with 245 to 255 °C.

The molecule `CCOC(=O)c1ccc(CCC2CC(n3c4ccccc4c4ccccc43)c3ccccc3N2C(=O)c2ccc(OC)c(OC)c2)cc1` (centres undefined) yielded a melting point of 247 to 249 °C. `Nc1nc(NCc2ccccc2)c2ncn(C3CC(F)C(CO)O3)c2n1` (centres undefined) showed a melting point of 90 to 94 °C. The same measure for `O=c1[nH]c(F)c(Cl)c(Cl)c1Cl`: 172 to 176 °C; for `CCOC(=O)N1CCc2nc3ccccc3c(C)c2CC1`: 125 °C. The molecule `CN(C)C(=O)Cn1c(-c2ccc([N+](=O)[O-])cc2)nc2cccnc21` displayed a melting point of 204 to 207 °C. `CC(C)C(N)=C(C#N)C(N)=S` displayed a melting point of 112 to 114 °C. `CN=C(NCc1ccccc1)NN=Cc1c(Cl)cccc1Cl`: the melting point lay within 84 to 86 °C. Regarding `CN(C)C(=O)c1ccc([N+](=O)[O-])cc1S(=O)(=O)Cl`, the melting point lay within 129 to 131 °C. Consider `CCOC(=O)c1ccc(NC(=O)C(COS(C)(=O)=O)NS(=O)(=O)c2ccc(Cl)cc2)cc1` (racemic), for which the melting point fell in the range of 153 to 158 °C.

`C=CCc1cccc2c(=O)cc(C=Cc3ccccc3)oc12` showed a melting point of 142 °C. In turn, `CCn1c(Cc2ccc(C)cc2)nnc1[C@@H](C)NS(=O)(=O)c1ccc(Cl)c(Cl)c1` came in with a melting point of 189 to 191 °C. Turning to `CNC(=O)c1ccccc1Nc1nc(Nc2cc3c(cc2OC)NC(=O)CCC3(C)C)ncc1Cl`, the melting point lay in the range of 197 to 199 °C. Then `O=C(c1ccc(F)c(F)c1)N1CCC[C@H](c2nc(-c3ccc([N+](=O)[O-])cc3)no2)C1`, with 138 to 140 °C. In the case of `O=C(Nc1cccc(C(F)(F)F)c1F)c1ccccc1NCc1ccc(=O)[nH]c1`, the melting point fell in the range of 185 to 186 °C. For `COc1ccc(C(=O)c2cccc(F)c2)cc1C(=O)O`, the melting point amounted to 200 °C. Then `Clc1nccnc1SN=Cc1ccccc1`, with 93 to 94 °C; and `COC(=O)Cc1cc(OCc2ccc3ccccc3n2)ccc1Nc1ccccc1`, with 106 to 107 °C; and `Cc1ccc(-c2cncnc2C#N)cc1`, with 107 to 109 °C. The molecule `CC(Cl)N1C(=O)CCC1=O` (centres undefined) returned a melting point of 83.5 to 84.5 °C.

As for `Cc1ccc(S(=O)(=O)O[C@H](C)COc2c(N)ccc(F)c2F)cc1`, the melting point lay in the range of 37 to 38 °C. For the molecule `O=C(Cc1ccccc1)Nc1ccc(-n2nc(C3CC3)cc2C2CC2)cc1`, the melting point fell in the range of 133 to 138 °C. Turning to `COC(=O)c1ccc(OC)c(C=O)c1`, the melting point was in the range of 98 to 102 °C. The same measure for `CC1(C)CCC(C)(C)c2cc(-c3cc(C=CC(=O)O)ccc3O)c(OCc3ccc(Cl)cc3)cc21`: 147 to 149 °C; for `CCC(O)c1ccccc1CS(=O)(=O)NC(=O)Nc1nc(OC)cc(OC)n1` (centres undefined): 95 to 98 °C.

In the case of `CCOC(=O)C(=Cc1cccn2cc(C)nc12)N=[N+]=[N-]`, the melting point lay within 121 to 123 °C. The same measure for `CN(CCc1cccs1)C(=O)C12CC3CC(CC(C3)C1)C2`: 95 to 99 °C; for `C=CCOc1ccc(-c2ccc(C#N)cc2)cc1`: 68 to 69 °C; for `Nc1cc(-n2cc(C(=O)O)c(=O)c3ccc(Cl)nc32)c(F)cc1F`: greater than 270 °C.

Molecule `CCOC(=O)C1=C(N)NC(C)=CC1c1cccc(Cl)c1` (centres undefined) registered a melting point of 140 °C. `CC(=O)Nc1cccc(C#CC=Cc2cccc(NC(C)=O)c2)c1` had a melting point of 276 to 278 °C. Turning to `CC(C)Cn1c(=O)n(C)c(=O)c2c(S(=O)(=O)CCCC(=O)O)c(Cc3cccc4ccccc34)sc21`, the melting point was 174 to 175 °C. `Cc1ccc(C)n1-c1ccc(OC(C)(C)C(=O)O)cc1` had a melting point of 178 to 180 °C.

Molecule `CC(C#CCOc1ccccc1)N(O)C(N)=O` (centres undefined) showed a melting point of 75 to 77 °C. Take `Cn1c(C(F)(F)F)cc(=O)n(-c2nc(Cl)c(Cl)cc2F)c1=O`: the melting point lay within 113 to 115 °C. Then `O=C(O)COc1cc2c(c(Cl)c1Cl)C(=O)CCC2`, with 250 to 252 °C; and `O=C(Nc1ccc(Cl)cn1)c1oc2ccc(C(=O)N3CCOCC3)cc2c1NC(=O)[C@H]1CC[C@H](N2CCCC2=O)CC1`, with 253 to 255 °C; and `CC(C)Cn1c(COc2ccccc2)nc2c(N)nc3ccccc3c21`, with 196 to 197 °C. Take `O=C(O)CCCCCCCCCCCCCCCOCc1ccccc1`: the melting point is 56 to 59 °C. Molecule `CCN1CCCC1CNC(=O)c1c(O)ccc(Br)c1OC` (centres undefined) displayed a melting point of 62 to 63 °C.

`CS(=O)(=O)N1CCN([C@@H](CNS(=O)(=O)c2ccc(OCc3noc4ccccc34)cc2)C(=O)NO)CC1` came in with a melting point of 107 °C. The molecule `Cn1cncc1C(N)(c1ccc(Cl)cc1)c1ccc2c(c1)C(c1cccc(Cl)c1)=NCc1nnnn1-2` (centres undefined) yielded a melting point of 218 °C. On to `COC(=O)c1nsc2nc3ccccc3n12`, for which the melting point lay within 208 to 209 °C. As for `O=C1CN(c2ccccc2)C(=S)N1Cc1ccccc1`, the melting point worked out at 103 °C.
